Experimental findings from patent US20230112470A1, “USE OF EGFR/HER2 TYROSINE KINASE INHIBITORS AND/OR HER2/HER3 ANTIBODIES FOR THE TREATMENT OF CANCERS WITH NRG1 FUSIONS” (Board of Regents, The University of Texas System, priority 2020, published 2023) are described below.

One assay concerns MDA175-VII (NRG1-DOC4 fusion) cells. The assay is described as follows: Cell viability by Cell Titer Glo assay, 72 hours treatment. Type of assay: cell-based. As to conditions: 72 h, read-out: Average IC50. The protocol: FIG. 1B. Representative dose response curves of MDA175-VII (NRG1-DOC4 fusion) treated with the indicated inhibitors for 72 hours. Cell viability was determined by Cell Titer Glo Assay.
Cell viability was determined by the Cell Titer Glo assay.
Drug screening and IC50 determination. Drug screening is performed as previously described. Briefly, cells are plated in 384-well plates (Greiner Bio-One) at 2000-3000 cells per well in technical triplicate. Seven different concentrations of covalent EGFR/HER2 TKIs and/or HER2/HER3 targeting antibodies or DMSO vehicle are added to reach a final volume of 40 μL per well. After 72 hours, 11 μL of Cell Titer Glo (Promega) is added to each well. Plates are incubated for a minimum of 10 minutes, and bioluminescence is determined using a FLUOstar OPTIMA plate reader (BMG LABTECH). Raw bioluminescence values are normalized to DMSO control treated cells, and values are plotted in GraphPad Prism. […] Drug screens are performed in technical triplicate on each plate and either duplicate or triplicate biological replicates.
One may read the IC50 as the point on the concentration scale where inhibition reaches its midpoint. On to `CCOc1cc2ncc(C#N)c(Nc3ccc(OCc4ccccn4)c(Cl)c3)c2cc1NC(=O)/C=C/CN(C)C` [Neratinib, neratinib], for which the IC50 was 0.747 nM.

Staying with this assay, now noted: MDA175-VII (NRG1-DOC4 fusion) cells, single HER2 inhibitor, 72 hours; read-out: Average IC50.
Regarding `C=CC(=O)Nc1cc(Nc2nccc(-c3cn(C)c4ccccc34)n2)c(OC)cc1N(C)CCN(C)C` [Osimertinib, osimertinib], the IC50 was 459 nM.
Same read-out and setting: the same measure for `COc1cc2ncnc(Nc3ccc(F)c(Cl)c3)c2cc1NC(=O)/C=C/CN1CCCCC1` [Dacomitinib, dacomitinib]: 1.18 nM; for `CNC(=O)CN1CCC(Oc2cc3c(Nc4cccc(Cl)c4F)ncnc3cc2OC)CC1` [Sapitinib, sapitinib]: 316 nM; for `CCOc1cc2ncc(C#N)c(Nc3ccc(OCc4ccccn4)c(Cl)c3)c2cc1NC(=O)/C=C/[C@H]1CCCN1C` [Pyrotinib, pyrotinib]: 10.4 nM.
Still for that read-out and setting: to `CN(C)C/C=C/C(=O)Nc1cc2c(Nc3ccc(F)c(Cl)c3)ncnc2cc1O[C@H]1CCOC1` [Afatinib, afatinib] belongs 0.891 nM.
Still for that read-out and setting: the same measure for `C#Cc1cccc(Nc2ncnc3cc(OCCOC)c(OCCOC)cc23)c1` [Erlotinib, erlotinib]: 1440 nM.
On to `C=CC(=O)N1CCC[C@@H](n2nc(-c3ccc(Oc4ccccc4)cc3)c3c(N)ncnc32)C1` [Ibrutinib, ibrutinib], for which the IC50 turned out to be 86.9 nM.
Regarding `CS(=O)(=O)CCNCc1ccc(-c2ccc3ncnc(Nc4ccc(OCc5cccc(F)c5)c(Cl)c4)c3c2)o1` [Lapatinib, lapatinib], the IC50 was found to be 98.6 nM.

Staying with this assay, now noted: MDA175-VII cells, anti-HER2 antibody alone (+DMSO), 72 hours; read-out: Average IC50.
Take T-DM1: the IC50 came out at 653 nM.
The same measure, in the same setting: to “Pertuzumab: recombinant, humanized monoclonal antibody that inhibits dimerization of HER2” belongs 51.5 nM.

Staying with this assay, now noted: MDA175-VII cells, single agent.
With “Pertuzumab: recombinant, humanized monoclonal antibody that inhibits dimerization of HER2”, the “inhibition of cell viability (in words)” value is “potently inhibited cell viability”.
